Assay results taken from patent US7972610B2, “Antimicrobial compounds” (University of Strathclyde, priority 2005, dated 2011).

System: A. castellanii
Assay: alamarBlue assay of susceptibility of A. castellanii to glyphosate
Assay type: cell-based
Conditions: Acanthamoeba castellanii; A. castellanii (Neff strain) trophozoites, 96 hr incubation, glyphosate 9 mM to 0.27 μM, FIG. 1; read-out: IC50 (inhibition of A. castellanii, percent alamarBlue reduction relative to untreated control cultures)
Method: Acanthamoeba polyphaga (Strain No. 1501/18) were obtained from CCAP (Cumbria, UK). Acanthamoeba castellanii (Neff strain) was kindly obtained from Keith Vickerman (Glasgow, UK). A. castellanii and A. polyphaga trophozoites were grown in (a) Rich media containing […] (Fluka, UK) and 0.9% maltose (Sigma, UK) and supplemented with 1% Penicillin, Streptomycin and Amphotericin B (All Sigma, UK) or (b) modified 11 containing 20% Rich media. Acanthamoeba spp. were incubated at room temperature in 75 cm^2 tissue culture flasks until 90-95% confluence, then harvested or sub-cultured using Accutase (Sigma, UK).
The susceptibility of the A. castellanii to glyphosate as assessed by the almarBlue assay. The susceptibility of A. castellanii to glyphosate was determined by a modification of the method described by McBride et al., (2005). A. castellanii cells were grown in 75 cm^2 flasks until 90-95% confluence and harvested using Accutase (Sigma, UK). […] AlamarBlue reduction was assessed as previously described. The percent inhibition of almarBlue reduction was calculated using the formula: (εox)λAλ1−(εox)λ1Aλ. of treated Acanthamoeba/(εox)λA°λ1−(εox)λ1A°λ of untreated Acanthamoeba×100
[where: °λ1=absorbance of untreated control with alamarBlue at 570 nm); °λ2=absorbance of untreated control with alamarBlue at 600 nm)]. […]

O=C(O)CNCP(=O)(O)O [Glyphosate, N-(phosphonomethyl)glycine]
IC50: 2.19 to 4.39 µM
